Test results: ChEMBL document CHEMBL1201862, “PubChem BioAssay data set” (2004)
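Values below derive from 48-hour exposures of cells grown in 96-well plates, with endpoints linearly interpolated between the two concentrations bracketing the appropriate inhibition level. At the GI50, growth is halved.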 Activity calls are given as the source filed them. No stated cut-off is given here; in the data, active = GI50 up to about 1.1 µM and inactive = higher.

Assays:
Assay in all cases: inhibition of tumour cell growth, NCI panel, 48 h
HL-60 = test system: HL-60
LOX IMVI = test system: LOX IMVI
786-0 = test system: 786-0
MOLT-4 = test system: MOLT-4
T47D = test system: T47D
SNB-19 = test system: SNB-19
HOP-62 = test system: HOP-62
HT-29 = test system: HT-29
CCRF-CEM = test system: CCRF-CEM
SF-295 = test system: SF-295
OVCAR-5 = test system: OVCAR-5
M14 = test system: M14
NCI-H23 = test system: NCI-H23
PC-3 = test system: PC-3
NCI/ADR-RES = test system: NCI/ADR-RES
UACC-257 = test system: UACC-257
A549 = test system: A549
SK-MEL-2 = test system: SK-MEL-2
OVCAR-3 = test system: OVCAR-3
MDA-MB-231 = test system: MDA-MB-231
DU-145 = test system: DU-145
HCT-116 = test system: HCT-116
SN12C = test system: SN12C
MCF7 = test system: MCF7
TK-10 = test system: TK-10
NCI-H226 = test system: NCI-H226
HCC 2998 = test system: HCC 2998
RPMI-8226 = test system: RPMI-8226
COLO 205 = test system: COLO 205
CAKI-1 = test system: CAKI-1
IGROV-1 = test system: IGROV-1
OVCAR-8 = test system: OVCAR-8
SK-MEL-5 = test system: SK-MEL-5
MDA-N = test system: MDA-N
HOP-92 = test system: HOP-92
SNB-75 = test system: SNB-75
SW-620 = test system: SW-620
HCT-15 = test system: HCT-15
NCI-H460 = test system: NCI-H460
U-251 = test system: U-251
SR = test system: SR
SF-539 = test system: SF-539
MDA-MB-435 = test system: MDA-MB-435
UACC-62 = test system: UACC-62
BT-549 = test system: BT-549
UO-31 = test system: UO-31
ACHN = test system: ACHN
RXF 393 = test system: RXF 393
K562 = test system: K562
NCI-H522 = test system: NCI-H522
SK-MEL-28 = test system: SK-MEL-28
OVCAR-4 = test system: OVCAR-4
KM12 = test system: KM12
Malme-3M = test system: Malme-3M
SK-OV-3 = test system: SK-OV-3
EKVX = test system: EKVX
A498 = test system: A498

## CCN(CCCN(CC)C(=O)Nc1ccccc1)C(=O)Nc1ccccc1
HL-60
  GI50: > 100 µM (inactive)
LOX IMVI
  GI50: > 100 µM (inactive)
786-0
  GI50: > 100 µM (inactive)
MOLT-4
  GI50: > 100 µM (inactive)
T47D
  GI50: > 100 µM (inactive)
SNB-19
  GI50: > 100 µM (inactive)
HOP-62
  GI50: > 100 µM (inactive)
HT-29
  GI50: > 100 µM (inactive)
CCRF-CEM
  GI50: > 100 µM (inactive)
SF-295
  GI50: > 100 µM (inactive)
OVCAR-5
  GI50: > 100 µM (inactive)
M14
  GI50: > 100 µM (inactive)
NCI-H23
  GI50: > 100 µM (inactive)
PC-3
  GI50: > 100 µM (inactive)
NCI/ADR-RES
  GI50: > 100 µM (inactive)
UACC-257
  GI50: > 100 µM (inactive)
A549
  GI50: > 100 µM (inactive)
SK-MEL-2
  GI50: > 100 µM (inactive)
OVCAR-3
  GI50: > 100 µM (inactive)
MDA-MB-231
  GI50: > 100 µM (inactive)
DU-145
  GI50: > 100 µM (inactive)
HCT-116
  GI50: > 100 µM (inactive)
SN12C
  GI50: > 100 µM (inactive)
MCF7
  GI50: > 100 µM (inactive)
TK-10
  GI50: > 100 µM (inactive)
NCI-H226
  GI50: > 100 µM (inactive)
HCC 2998
  GI50: > 100 µM (inactive)
RPMI-8226
  GI50: > 100 µM (inactive)
COLO 205
  GI50: > 100 µM (inactive)
CAKI-1
  GI50: > 100 µM (inactive)
IGROV-1
  GI50: > 100 µM (inactive)
OVCAR-8
  GI50: > 100 µM (inactive)
SK-MEL-5
  GI50: > 100 µM (inactive)
MDA-N
  GI50: > 100 µM (inactive)
HOP-92
  GI50: > 100 µM (inactive)
SNB-75
  GI50: > 100 µM (inactive)
SW-620
  GI50: > 100 µM (inactive)
HCT-15
  GI50: > 100 µM
NCI-H460
  GI50: > 100 µM (inactive)
U-251
  GI50: > 100 µM (inactive)
SR
  GI50: > 100 µM (inactive)
SF-539
  GI50: > 100 µM (inactive)
MDA-MB-435
  GI50: > 100 µM (inactive)
UACC-62
  GI50: > 100 µM (inactive)
BT-549
  GI50: > 100 µM (inactive)
UO-31
  GI50: > 100 µM (inactive)
ACHN
  GI50: > 100 µM (inactive)
RXF 393
  GI50: > 100 µM (inactive)
K562
  GI50: > 100 µM (inactive)
NCI-H522
  GI50: > 100 µM (inactive)
SK-MEL-28
  GI50: > 100 µM (inactive)
OVCAR-4
  GI50: > 100 µM (inactive)
KM12
  GI50: > 100 µM (inactive)
Malme-3M
  GI50: 66.1 µM (inactive)
SK-OV-3
  GI50: > 100 µM (inactive)
EKVX
  GI50: > 100 µM (inactive)

## CCOC(=O)C1=c2[nH]c3cccc4cccc(c43)n2C=C(C(C)=O)C1CC(C)=O (configuration not stated)
HL-60
  GI50: 12.3 µM (inactive)
LOX IMVI
  GI50: 43.2 µM (inactive)
786-0
  GI50: 40.4 µM (inactive)
MOLT-4
  GI50: > 100 µM (inactive)
T47D
  GI50: 34 µM (inactive)
SNB-19
  GI50: 55.2 µM (inactive)
HOP-62
  GI50: 68.7 µM (inactive)
CCRF-CEM
  GI50: 19.9 µM (inactive)
SF-295
  GI50: > 100 µM (inactive)
OVCAR-5
  GI50: > 100 µM (inactive)
M14
  GI50: > 100 µM (inactive)
NCI-H23
  GI50: 69.7 µM (inactive)
PC-3
  GI50: > 100 µM (inactive)
NCI/ADR-RES
  GI50: > 100 µM (inactive)
UACC-257
  GI50: > 100 µM (inactive)
A549
  GI50: 46.2 µM (inactive)
SK-MEL-2
  GI50: > 100 µM (inactive)
OVCAR-3
  GI50: > 100 µM (inactive)
DU-145
  GI50: > 100 µM (inactive)
HCT-116
  GI50: 34.4 µM (inactive)
SN12C
  GI50: > 100 µM (inactive)
MCF7
  GI50: 94.2 µM (inactive)
A498
  GI50: 86.1 µM (inactive)
TK-10
  GI50: > 100 µM (inactive)
HCC 2998
  GI50: 62.7 µM (inactive)
RPMI-8226
  GI50: > 100 µM (inactive)
COLO 205
  GI50: 35.1 µM (inactive)
CAKI-1
  GI50: 56.6 µM (inactive)
IGROV-1
  GI50: > 100 µM (inactive)
OVCAR-8
  GI50: 46.2 µM (inactive)
SK-MEL-5
  GI50: > 100 µM (inactive)
MDA-N
  GI50: > 100 µM (inactive)
HOP-92
  GI50: 36.6 µM (inactive)
SNB-75
  GI50: > 100 µM (inactive)
SW-620
  GI50: 40.6 µM (inactive)
HCT-15
  GI50: 44 µM
NCI-H460
  GI50: > 100 µM (inactive)
U-251
  GI50: > 100 µM (inactive)
SR
  GI50: > 100 µM (inactive)
MDA-MB-435
  GI50: 52.6 µM (inactive)
UACC-62
  GI50: > 100 µM (inactive)
BT-549
  GI50: > 100 µM (inactive)
UO-31
  GI50: 37.4 µM (inactive)
ACHN
  GI50: 80 µM (inactive)
RXF 393
  GI50: 56.1 µM (inactive)
K562
  GI50: > 100 µM (inactive)
SK-MEL-28
  GI50: > 100 µM (inactive)
OVCAR-4
  GI50: > 100 µM (inactive)
KM12
  GI50: > 100 µM (inactive)
SK-OV-3
  GI50: 6.4 µM (inactive)
EKVX
  GI50: > 100 µM (inactive)
